The values that follow come from patent EP0369088A1, “Use of zinc acexamate in the prophylaxis of gastropathy induced by non-steroidal anti-inflammatory drugs” (LABORATORIOS VINAS S.A., priority 1988, dated 1990).

What all share (assay type): in vivo, rat (Sprague Dawley)
One assay deals with Aspirin-induced lesions. Kind of assay: Aspirin-induced gastric lesions in the rat, protective effect of ZAC. To be noted: aspirin two doses of 200 mg/kg p.o. 12 hours apart, mean ± SD, n 10, p<0.01; for Macroscopic index: control 3.4 ± 0.2; for Microscopic index: scale 0 to 5, control 3.0 ± 0.3. The text has this:
(§1) In view of the more or less serious gastric intolerance to the different anti-inflammatory drugs, the possibility of inhibiting this side effect by way of the protective action of zinc […]) has been considered. Therefore, the protective effect of ZAC against gastric lesions induced by the most characteristic NSAIDs has been studied. The animal of election was the rat (Sprague Dawley), which was sacrificed after treatment with ZAC and NSAID. The stomach was extirpated, and macro and microscopic evaluations were made. The macroscopic evaluation was made following the method of Adami (1964, Arch. Int. Pharmacodyn., 147: 113-45) with slight modifications, consisting of evaluating the gravity and extension of the lesions, using a points system evaluating the lesions according to the number and/or size thereof. 0 - no lesion 1 - irritation or presence of a hemorrhagic area 2 - from 1 to 5 small ulcers 3 - many small ulcers (more than 5) or 1 large one 4 - many large ulcers 5 - perforated ulcer The overall value of the lesions is obtained by adding up the score of the lesions determined. Half of the stomachs of each animal group was taken for hystological processing, the microscopic lesions being valued according to a scale of 0 to 5, 0 being a lesion-free mucous membrane and 5 representing multiple erosions with hemorrhagic subfusions. two doses of 200 mg/kg p.o. were administered spaced apart by 12 hours. In both cases, ZAC was tested at dosages of: 50, 100 and 150 mg/kg and a control group received water.

Assay [1] concerns Ibuprofen-induced lesions. Kind of assay: Ibuprofen-induced gastric lesions in the rat, protective effect of ZAC. To be noted: ibuprofen single 200 mg/kg dose, mean ± SD; for Macroscopic index: n 10, control 2.4 ± 0.3; for Microscopic index: scale 0 to 5, n 5, control 2.8 ± 0.4.
From the text: as §1, with “a single” for “two doses of”, “dose was administered.” for “p.o. were administered spaced apart by 12 hours.”

Assay [2] has as its system Phenylbutazone-induced lesions. Kind of assay: Phenylbutazone-induced gastric lesions in the rat, protective effect of ZAC. To be noted: phenylbutazone total dose 80 mg/kg in two halves 2 hours apart, mean ± SD, n 10, control 2.8 ± 0.4, p<0.01. The text has this:
In view of the more or less serious gastric intolerance to the different anti-inflammatory drugs, the possibility of inhibiting this side effect by way of the protective action of zinc acexamate (ZAC) has been considered. Therefore, the protective effect of ZAC against gastric lesions induced by the most characteristic NSAIDs has been studied. The animal of election was the rat (Sprague Dawley), which was sacrificed after treatment with ZAC and NSAID. The stomach was extirpated, and macro and microscopic evaluations were made. The macroscopic evaluation was made following the method of Adami (1964, Arch. Int. Pharmacodyn., 147: 113-45) with slight modifications, consisting of evaluating the gravity and extension of the lesions, using a points system evaluating the lesions according to the number and/or size thereof. 0 - no lesion 1 - irritation or presence of a hemorrhagic area 2 - from 1 to 5 small ulcers 3 - many small ulcers (more than 5) or 1 large one 4 - many large ulcers 5 - perforated ulcer
The overall value of the lesions is obtained by adding up the score of the lesions determined.
An additional, anti-ulcer activity index was calculated for phenylbutazone, obtained by expressing the lesion indexes as an inhibition percentage relative to the control group. The dose-response curve was determined from the percentages and the theoretical ED₅₀ was determined from the curve.
A total dose of 80 mg/kg of phenylbutazone was administered, half at the start of the experiment and the other half after 2 hours. The ZAC doses used were 75, 150 and 300 mg/kg. The animals were sacrificed 4 hours after the last ZAC administration.

Assay [3] relates to Indomethacin-induced lesions. Kind of assay: Indomethacin-induced gastric lesions in the rat, protective effect of ZAC. To be noted: ZAC 200 mg/kg, indomethacin total 20 mg/kg in two doses of 10 mg/kg 12 hours apart, mean ± SD, p<0.01.
From the text: as §1, with “two doses of 200 mg/kg p.o. were administered spaced apart by 12 hours. In both cases, ZAC was tested at dosages of: 50, 100 and 150 mg/kg and a control group received water.” left out

Consider zinc acexamate [ZAC], for which the Macroscopic index with Aspirin-induced lesions (ZAC 50 mg/kg) came out at 2.3 ± 0.3; with Aspirin-induced lesions (ZAC 100 mg/kg), 2.1 ± 0.3; with Aspirin-induced lesions (ZAC 150 mg/kg), 1.9 ± 0.3; in assay [1] (ZAC 50 mg/kg, p<0.01) it was 1.6 ± 0.4; in assay [1] (ZAC 100 mg/kg, p<0.01), 1.7 ± 0.3; in assay [1] (ZAC 150 mg/kg, p<0.01), 1.5 ± 0.2. In addition, the Macroscopic index in assay [2] (ZAC 75 mg/kg) is given as 1.3 ± 0.5; in assay [2] (ZAC 150 mg/kg) it was 0.4 ± 0.3; in assay [2] (ZAC 300 mg/kg), 2.0 ± 0.2; in assay [3] (n 10, control 4.3 ± 0.4), 1.8 ± 0.3. For the same substance, the Microscopic index in the assay on Aspirin-induced lesions (ZAC 50 mg/kg) is recorded as 1.8 ± 0.2; in the assay on Aspirin-induced lesions (ZAC 100 mg/kg), 2.0 ± 0.2; with Aspirin-induced lesions (ZAC 150 mg/kg), 2.3 ± 0.2; in assay [1] (ZAC 50 mg/kg, p<0.05), 2.2 ± 0.2; in assay [1] (ZAC 100 mg/kg, NS) it was 2.4 ± 0.2 NS; in assay [1] (ZAC 150 mg/kg, p<0.01), 2.0 ± 0.03. Besides, the Microscopic index in assay [3] (scale 0 to 5, n 5, control 4.0 ± 0.7) is 5 2.1 ± 0.2.
